Earlier results in paper PMC2677997 (Bioorganic & medicinal chemistry, 2009).

Test system: SNARE cleavage in neuronal cells
Details: cited from earlier work

O=C(/C=C/c1ccc(Cl)cc1Cl)NO [Compound 2, 2,4-dichlorocinnamic hydroxamic acid]
activity in a cellular assay: inactive or cytotoxic
